Among the data in patent US8293715B2, “10a-Azalide compound crosslinked at 10a- and 12-positions” (Taisho Pharmaceutical Co., Ltd., priority 2007, dated 2012) are MIC values, retold here.

Holding throughout (type): cell-based
In experiment [1] the test system is H. influenzae ATCC 43095. As to the kind of experiment: In vitro antibacterial activity, MIC by microbroth dilution method (CLSI method), test bacteria symbol A. The following applies: Haemophilus influenzae, ATCC43095, read-out: MIC (minimum inhibitory concentration), test bacteria A. On the procedure: (§1) In vitro antibacterial activities of the compounds of the present invention against various test bacteria were measured according to the microbroth dilution method (CLSI method). As Comparative agent 1, clarithromycin was used, and the results for typical exemplary compounds are shown as MIC values (minimum inhibitory concentration, μg/ml) in Table 19.
A general note: Dilution methods test growth across graded concentrations, often in twofold steps.

Experiment [2] concerns S. pneumoniae ATCC 49619. Nature of the experiment: In vitro antibacterial activity, MIC by microbroth dilution method (CLSI method), test bacteria symbol B. The conditions noted are these: Streptococcus pneumoniae, ATCC49619, read-out: MIC (minimum inhibitory concentration), test bacteria B. As to the method: as §1
Experiment [3] deals with S. pneumoniae ATCC 700904. As to the kind of experiment: In vitro antibacterial activity, MIC by microbroth dilution method (CLSI method), test bacteria symbol C. The following applies: Streptococcus pneumoniae, ATCC700904, read-out: MIC (minimum inhibitory concentration), test bacteria C. As to the method: as §1

Values after ≈ are worked out from the molar mass of the structure shown. Where only a bound is given, the exact number is not on record here.

Turning to `CO[C@]1(C)C[C@H](O[C@H]2[C@H](C)[C@@H](O[C@@H]3O[C@H](C)C[C@H](N(C)C)[C@H]3O)[C@@](C)(OC)C[C@@H](C)[C@H](O)[C@H](C)N3C[C@@H](COCc4ccccc4)[C@H](C3)OC(=O)[C@@H]2C)O[C@@H](C)[C@@H]1O` [Example523], the MIC in experiment [1] is 4 µg/mL (≈ 4.86 µM); in experiment [2] it was 0.12 µg/mL (≈ 0.146 µM); in experiment [3], more than 128 µg/mL.
Turning to `CO[C@]1(C)C[C@H](O[C@H]2[C@H](C)[C@@H](O[C@@H]3O[C@H](C)C[C@H](N(C)C)[C@H]3O)[C@@](C)(OC)C[C@@H](C)[C@H](O)[C@H](C)N3CCC[C@@H](C3)OC(=O)[C@@H]2C)O[C@@H](C)[C@@H]1O` [Example525], the MIC in experiment [1] is 0.5 µg/mL (≈ 0.697 µM); in experiment [2], 0.25 µg/mL (≈ 0.349 µM); in experiment [3] it was more than 128 µg/mL.
Consider `CC[C@H]1OC(=O)[C@H](C)[C@@H](O[C@H]2C[C@@](C)(OC)[C@@H](O)[C@H](C)O2)[C@H](C)[C@@H](O[C@@H]2O[C@H](C)C[C@H](N(C)C)[C@H]2O)[C@](C)(OC)C[C@@H](C)C(=O)[C@H](C)[C@@H](O)[C@]1(C)O` [Comparative agent 1, clarithromycin, reference compound], for which the values for the MIC in experiment [1], in experiment [2] and in experiment [3] were 4 µg/mL (≈ 5.35 µM), 0.03 µg/mL (≈ 0.0401 µM) and more than 128 µg/mL, respectively.
As to `CO[C@@]1(C)C[C@@H](C)[C@H](O)[C@H](C)N2C[C@@H](COc3cccc(C(C)(C)C)c3)[C@H](C2)OC(=O)C(C)(Cl)C(=O)[C@H](C)[C@H]1O[C@@H]1O[C@H](C)C[C@H](N(C)C)[C@H]1O` (stereo partly drawn) [Example522], the MIC was 16 µg/mL (≈ 21.6 µM) in experiment [1], 8 µg/mL (≈ 10.8 µM) in experiment [2] and more than 16 µg/mL in experiment [3].
